Test results published in patent US20120004193A1, “PROCESS FOR PRODUCTION OF ORALLY INGESTIBLE COMPOSITION CONTAINING ARABINOFURANOSYL VITEXIN, AND USE OF THE COMPOSITION” (Fuji Sangyo Co., Ltd., priority 2009, published 2012).

System: ICR mice
Assay: Sedative and sleep-inducing activities in thiopental sodium-treated mice
Format: in vivo, mouse
Conditions: 100 mg/kg body weight oral, thiopental sodium 30 mg/kg i.p. 45 minutes later, measured over 40 minutes, compared with negative control group, p<0.01 (Dunnet)
Description: The arabinofuranosyl vitexin-isolated product obtained in the above-mentioned procedure (1) was used to study sedative and sleep-inducing effects. A sample was orally administered to six ICR mice (body weight: 40 to 45 g).
As the sample, the ‘arabinofuranosyl vitexin (100 mg/kg body weight)’ dissolved in physiological saline was orally administered. It should be noted that ‘diazepam (2 mg/kg body weight)’ having a sleep-inducing effect was dissolved in physiological saline and orally administered as a positive control, and ‘physiological saline alone’ was orally administered as a negative control.
Then, 45 minutes after the oral administration of the sample, thiopental sodium (30 mg/kg body weight) […] was administered intraperitoneally, and the mice were individually placed in mouse cages (17 cm×27 cm).
In a period from the start of the administration of thiopental sodium to 40 minutes later, a total time when a mouse stopped moving for one or more minutes and got in a sleep state was measured to evaluate the sedative and sleep-inducing effects.
It should be noted that the symbol in FIG. 2 represents that there is a significant difference compared with the negative control group at a risk rate of less than 1% (p<0.01) by a Dunnet multiple comparison assay.

Q: How did the “sedation and sleeping times (total time when a mouse stopped moving for one or more minutes and got in a sleep state)” value turn out when O=c1cc(-c2ccc(O)cc2)oc2c(C3OC(CO)C(O)C(O)C3OC3OC(CO)C(O)C3O)c(O)cc(O)c12 [arabinofuranosyl vitexin, 2″-O-α-D-arabinofuranosyl vitexin] was run?
A: extended significantly
